Measured values as given in patent US9814865B2, “Coated medical device” (Cook Medical Technologies LLC, priority 2000, dated 2017).

Assay: physical adhesion test simulating introduction and deployment of paclitaxel-coated stents
Type: physicochemical
Conditions: passed through water-filled guiding catheter, balloon-expanded, measured by spectrometry
Description: More particularly, the adhesion of paclitaxel to two types of stainless steel, grit abraded stents was compared to its adhesion to stents of those types whose surfaces had instead been plasma treated prior to the direct deposition of paclitaxel thereon (control stents). The coated stents of both types, that is, medical devices 10 of the present invention and control stents, were then subjected to a physical adhesion test which simulated the rate at which paclitaxel would be delivered during introduction and deployment of the stents in clinical use. The adhesion test involved passing each stent through a water-filled guiding catheter of appropriate diameter and inflating the balloon catheter to expand each stent to its intended diameter. The stents are already mounted before coating. The amount of paclitaxel remaining on each stent was then measured by spectrometry and compared to the amount of paclitaxel initially posited on each stent. Stents having surfaces 16 roughened or textured by abrasion with different abrasive grits 24 retained 84.1±10.2% of the paclitaxel originally applied, while stents having plasma treated surfaces retained only 44.3±8.7% of the paclitaxel originally applied (p<0.0001).

Compound: CC(=O)O[C@H]1C(=O)[C@@]2(C)[C@H]([C@H](OC(=O)c3ccccc3)[C@]3(O)C[C@H](OC(=O)[C@H](O)[C@@H](NC(=O)c4ccccc4)c4ccccc4)C(C)=C1C3(C)C)[C@]1(OC(C)=O)CO[C@@H]1C[C@@H]2O [paclitaxel]
- paclitaxel originally applied retained on stent after adhesion test (stainless steel control stents with plasma treated surfaces, p<0.0001 vs abraded): 44.3±8.7%
- paclitaxel originally applied retained on stent after adhesion test (stainless steel stents, surfaces roughened or textured by abrasion with different abrasive grits): 84.1±10.2%
